{"source": "paper PMC8727733", "about": "“Improvement of glycine biosynthesis from one‐carbon compounds and ammonia catalyzed by the glycine cleavage system in vitro” (Engineering in Life Sciences, 2021)", "target": "T1, glycine cleavage system (GCS), L protein with P, T and H proteins (Escherichia coli, UniProt P0A9P0)", "T1 construct": "gene lpdA; printed WP records may differ from the MG1655 alleles; with Glycine dehydrogenase (decarboxylating); Aminomethyltransferase; Glycine cleavage system H protein", "T1 sequence (P0A9P0 2-474)": "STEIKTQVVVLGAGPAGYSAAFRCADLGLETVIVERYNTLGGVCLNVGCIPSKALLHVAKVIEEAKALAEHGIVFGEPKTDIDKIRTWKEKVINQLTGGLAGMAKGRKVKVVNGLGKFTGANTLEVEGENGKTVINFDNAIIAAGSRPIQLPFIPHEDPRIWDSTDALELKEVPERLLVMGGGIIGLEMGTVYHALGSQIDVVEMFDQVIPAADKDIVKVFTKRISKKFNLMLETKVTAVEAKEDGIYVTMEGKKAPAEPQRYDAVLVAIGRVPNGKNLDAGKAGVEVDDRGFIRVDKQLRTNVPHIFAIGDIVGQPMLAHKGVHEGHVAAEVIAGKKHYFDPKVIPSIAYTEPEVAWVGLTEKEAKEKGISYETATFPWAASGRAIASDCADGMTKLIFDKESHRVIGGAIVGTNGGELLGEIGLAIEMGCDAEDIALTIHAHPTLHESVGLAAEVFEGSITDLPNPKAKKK", "T1 sequence (P0A6T9 2-129 partner)": "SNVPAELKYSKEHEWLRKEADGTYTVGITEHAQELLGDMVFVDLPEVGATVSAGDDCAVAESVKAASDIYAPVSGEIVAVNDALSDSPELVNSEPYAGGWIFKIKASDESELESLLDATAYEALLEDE", "assay": "glycine-dependent NADH formation, spectrophotometric, reconstituted GCS", "type": "biochemical", "details": "5 mM NAD+, 50 mM glycine, 0.5 mM THF, 20 mM DTT, 25 uM PLP, 50 mM Tris-HCl pH 7.5, 37 C; overall glycine cleavage", "data": [{"smiles": "NC(=O)c1ccc[n+]([C@@H]2O[C@H](COP(=O)(O)OP(=O)(O)OC[C@H]3O[C@@H](n4cnc5c(N)ncnc54)[C@H](O)[C@@H]3O)[C@@H](O)[C@H]2O)c1", "note": "[NAD+]", "values": [{"measurement": "glycine-dependent NADH formation, spectrophotometric, reconstituted GCS", "value": "measuring glycine‐dependent NADH formation"}]}]}
